# Laboratory results: the supplement of paper PMC10307832
# Tests used:
# Test in all cases: relative viability (nuclei count vs DMSO), 5 days (fraction); higher = more cells survive
# [1] = compound: O=C(C[C@H]1NCCC[C@@H]1O)Cn1cnc2cc(Br)c(Cl)cc2c1=O (racemic) [Halofuginone] + Cc1nc(Nc2ncc(C(=O)Nc3c(C)cccc3Cl)s2)cc(N2CCN(CCO)CC2)n1 [Dasatinib] (partner 0.075 µM)
# Summary of the method: (§1)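 Five library-drug doses in √10 steps were combined with a fixed anchor-drug dose, or a single drug was given alone, by pin tool to lung cancer cell lines in 1536-well plates the day after seeding. Nuclei were stained and counted after 5 days. Relative viability is the nuclei count in treated wells over that in vehicle wells, taken as the median of duplicate plates.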
# [2] = compound: O=C(C[C@H]1NCCC[C@@H]1O)Cn1cnc2cc(Br)c(Cl)cc2c1=O (racemic) [Halofuginone] + Cc1nc(NC(=O)N2CCC[C@H]2C(N)=O)sc1-c1ccnc(C(C)(C)C(F)(F)F)c1 [Alpelisib] (partner 2 µM)
# Summary of the method: as §1
# [3] = compound: COc1cc2c(Oc3ccc4[nH]c(C)cc4c3F)ncnc2cc1OCCCN1CCCC1 [Cediranib] + O=C(CCCCCCC(=O)Nc1ccccc1)NO [Vorinostat] (partner 1 µM)
# Summary of the method: as §1
# [4] = compound: COc1cc2c(Oc3ccc4[nH]c(C)cc4c3F)ncnc2cc1OCCCN1CCCC1 [Cediranib] + C[C@]1(O)C[C@@H](c2nc(-c3ccc4ccc(-c5ccccc5)nc4c3)c3c(N)nccn32)C1 [Linsitinib] (partner 1 µM)
# Summary of the method: as §1
Cell Line,relative viability ([1]; first compound 0.001 µM),relative viability ([1]; first compound 0.003162 µM),relative viability ([1]; first compound 0.01 µM),relative viability ([1]; first compound 0.03162 µM),relative viability ([1]; first compound 0.1 µM),relative viability ([2]; first compound 0.001 µM),relative viability ([2]; first compound 0.003162 µM),relative viability ([2]; first compound 0.01 µM),relative viability ([2]; first compound 0.03162 µM),relative viability ([2]; first compound 0.1 µM),relative viability ([3]; first compound 0.04 µM),relative viability ([3]; first compound 0.4 µM),relative viability ([3]; first compound 1.265 µM),relative viability ([3]; first compound 4 µM),relative viability ([4]; first compound 0.04 µM),relative viability ([4]; first compound 0.1265 µM),relative viability ([4]; first compound 0.4 µM),relative viability ([4]; first compound 1.265 µM),relative viability ([4]; first compound 4 µM),relative viability ([3]; first compound 0.1265 µM)
LXF-289,0.318,0.266,0.267,0.222,0.198,1.04,1.08,1.01,0.994,0.852,0.754,0.724,0.812,0.787,0.986,0.903,0.93,0.942,0.902,–
NCI-H23,0.862,0.86,0.891,0.741,0.472,0.548,0.725,0.643,0.814,0.224,0.545,0.532,0.587,0.789,0.698,–,0.542,0.442,0.682,0.487
NCI-H322M,0.27,0.26,0.251,0.208,0.212,0.516,0.879,0.777,0.802,0.768,0.876,0.818,0.983,0.871,1.01,0.997,0.879,0.856,1.09,1.05
NCI-H358,0.175,0.188,0.115,0.0901,0.0916,0.898,0.818,0.711,0.305,0.164,0.689,0.638,0.705,0.648,0.919,0.745,0.681,0.717,0.899,1.05
NCI-H441,0.654,0.576,0.668,0.459,0.237,0.602,0.605,0.623,0.664,0.262,0.864,0.767,0.824,0.909,0.445,0.546,0.524,0.551,0.652,0.825
NCI-H460,0.571,0.542,0.445,0.349,0.157,0.62,0.495,0.464,0.214,0.0177,0.795,0.661,0.678,0.822,0.86,0.757,0.702,0.727,0.676,0.792
NCI-H520,0.215,0.173,0.175,0.16,0.17,0.792,0.767,0.911,0.761,0.295,0.792,0.581,0.576,0.676,1.08,–,0.809,0.806,0.908,0.622
NCI-H596,0.538,0.533,0.598,0.559,0.366,0.478,0.467,0.453,0.544,0.465,0.584,0.585,0.682,0.836,1.16,1.07,1.11,1.05,1.09,0.488
NCI-H647,0.219,0.216,0.188,0.171,0.099,1.24,1.17,1.1,0.781,0.102,0.689,0.56,0.509,0.684,1.34,1.13,1.15,1.11,1.41,0.594
NCI-H650,0.528,0.478,0.47,0.452,0.367,1.23,1.35,1.16,1.08,0.675,0.363,0.526,0.356,0.454,0.792,0.681,0.807,0.706,0.964,0.319
NCI-H661,0.954,0.884,0.856,0.79,0.378,0.687,0.65,0.53,0.817,0.68,0.905,0.763,0.773,0.911,0.509,0.733,0.596,0.527,0.743,0.796
NCI-H727,0.417,0.411,0.397,0.396,0.263,0.623,0.437,0.478,0.456,0.221,0.934,1.08,1.21,1.27,0.293,0.267,0.33,0.372,0.279,0.913
NCI-H838,0.312,0.307,0.339,0.228,0.17,1.05,0.961,1.05,0.566,0.111,0.703,0.678,0.763,0.838,1.06,1.03,0.956,0.984,1.03,0.712
NCI-H1355,0.762,0.764,0.727,0.692,0.458,0.811,0.781,0.894,0.79,0.743,0.688,0.572,0.544,0.616,0.8,0.866,0.781,0.813,0.96,0.684
NCI-H1395,0.425,0.469,0.426,0.364,0.366,1.06,1.03,1.01,0.866,0.608,0.686,0.601,0.645,0.711,0.937,–,1.11,1.16,0.936,0.689
NCI-H1437,0.377,0.445,0.431,0.364,0.285,0.996,0.957,0.979,0.673,0.294,0.875,0.872,0.819,0.898,1.09,0.987,0.951,1.04,1.01,0.778
